Data from publication PMC10465233, “Lys-urea-Aad, Lys-urea-Cmc and Lys-urea-Cms as potential pharmacophores for the design of PSMA-targeted radioligands to reduce off-target uptake in kidneys and salivary glands” (Theranostics, 2023).
Where “and” joins values, the source holds several entries; their conditions need not be identical. Equal entries are not always repeated.

Experiments:
[1] = target: T1, PSMA (Homo sapiens, UniProt Q04609); assay: In vitro competition binding assay, LNCaP cells, [^18F]DCFPyL as radioligand
T1 construct: host or cells: LNCaP prostate cancer cells
T1 sequence (Q04609 whole entry): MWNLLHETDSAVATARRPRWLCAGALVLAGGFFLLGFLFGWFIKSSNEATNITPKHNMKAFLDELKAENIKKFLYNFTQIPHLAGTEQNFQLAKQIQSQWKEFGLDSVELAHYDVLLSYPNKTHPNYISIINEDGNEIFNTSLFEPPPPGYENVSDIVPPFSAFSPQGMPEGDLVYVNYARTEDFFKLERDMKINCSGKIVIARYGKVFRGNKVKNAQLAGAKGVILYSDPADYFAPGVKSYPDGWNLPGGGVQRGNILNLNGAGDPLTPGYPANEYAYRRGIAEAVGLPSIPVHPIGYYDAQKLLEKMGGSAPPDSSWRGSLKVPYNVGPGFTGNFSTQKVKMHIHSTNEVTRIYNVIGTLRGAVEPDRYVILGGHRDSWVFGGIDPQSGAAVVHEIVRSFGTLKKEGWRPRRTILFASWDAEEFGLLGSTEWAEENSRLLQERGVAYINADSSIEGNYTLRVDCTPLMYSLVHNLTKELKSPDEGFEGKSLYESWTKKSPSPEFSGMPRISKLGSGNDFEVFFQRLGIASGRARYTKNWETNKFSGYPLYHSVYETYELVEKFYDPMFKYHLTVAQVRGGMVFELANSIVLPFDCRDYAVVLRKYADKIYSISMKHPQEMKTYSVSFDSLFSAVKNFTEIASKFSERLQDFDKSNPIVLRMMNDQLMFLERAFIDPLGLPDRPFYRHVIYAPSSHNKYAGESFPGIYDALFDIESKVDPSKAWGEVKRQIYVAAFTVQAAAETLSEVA
Experimental: The LNCaP cells obtained from ATCC (via Cedarlane, Burlington, Canada) were cultured in RPMI 1640 medium supplemented with 10% FBS, penicillin (100 U/mL) and streptomycin (100 μg/mL) at 37 °C in a Panasonic Healthcare (Tokyo, Japan) MCO-19AIC humidified incubator containing 5% CO2. The cells were confirmed pathogen free by the IMPACT Rodent Pathogen Test (IDEXX BioAnalytics). Cells grown to 80-90% confluence were then washed with sterile PBS and collected after trypsinization. The cell concentration was counted in triplicate using a hemocytometer and a manual laboratory counter.
In vitro competition binding assays were conducted as previously reported using LNCaP prostate cancer cells and [^18F]DCFPyL as the radioligand [10]-[12],[14]. Briefly, LNCaP cells (400,000/well) were plated onto a 24-well poly-D-lysine coated plate for 48 h. Growth media was removed and replaced with HEPES buffered saline (50 mM HEPES, pH 7.5, 0.9% sodium chloride) and the cells were incubated for 1 h at 37 °C. [^18F]DCFPyL (0.1 nM) was added to each well (in triplicate) containing various concentrations (0.5 mM - 0.05 nM) of tested ligands. Non-specific binding was determined in the presence of 10 µM non-radiolabeled DCFPyL. The assay mixtures were further incubated for 1 h at 37 °C with gentle agitation. Then, the buffer and hot ligand were removed, and cells were washed twice with cold HEPES buffered saline. To harvest the cells, 400 µL of 0.25% trypsin solution was added to each well. Radioactivity was measured on an automatic gamma counter. Nonlinear regression analyses and Ki calculations were performed using the GraphPad Prism 7 software.

[2] = tested on: LNCaP tumor-bearing mice; assay: Ex vivo biodistribution in LNCaP tumor-bearing mice; parameters: species or system mouse; settings: 1 h post-injection; for Reduction of average kidney uptake by co-injection of DCFPyL: DCFPyL 0.5 mg
Method in brief: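 Male NSG or NRG mice bearing subcutaneous LNCaP tumours (5-8 mm) were injected with 2-4 MBq radioligand, with 0.5 mg nonradioactive DCFPyL co-injected for blocking. At set time points, blood and organs were collected, weighed and gamma-counted.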

[3] = tested on: LNCaP tumor-bearing mice; assay: PET/CT imaging in LNCaP tumor-bearing mice; assay type: in vivo, mouse; settings: 1 h post-injection
Experimental: Imaging, biodistribution and radioligand therapy experiments were performed following previously published procedures using male NOD-scid IL2Rg^null (NSG) or NOD.Cg-Rag1^tm1MomIl2rg^tm1Wjl/SzJ (NRG) mice [10]-[12],[14]-[15]. The experiments were conducted according to the guidelines established by the Canadian Council on Animal Care and approved by Animal Ethics Committee of the University of British Columbia. The mice were briefly sedated by inhalation of 2% isoflurane in oxygen, and implanted subcutaneously with 1×10^7 LNCaP cells behind the left shoulder. The mice were imaged or used in biodistribution studies when the tumor grew to 5-8 mm in diameter over a period of 4-5 weeks.
PET/CT imaging experiments were conducted using a Siemens (Knoxville, TN, USA) Inveon micro PET/CT scanner. Each tumor-bearing mouse was injected with ~6-8 MBq of ^68Ga-labeled tracer through a lateral caudal tail vein. After 50 min post-injection, a 10-min CT scan was conducted first for localization and attenuation correction after segmentation for reconstructing the PET images, followed by a 10-min static PET imaging acquisition.

[4] = blocked, co-injected with DCFPyL (0.5 mg)

SMILES: O=C([O-])CN1CCN(CC(=O)[O-])CCN(CC(=O)NCC2CCC(C(=O)NC(Cc3c4ccccc4cc4ccccc34)C(=O)NCCCCC(NC(=O)NC(COCC(=O)O)C(=O)O)C(=O)O)CC2)CCN(CC(=O)[O-])CC1.[Ga+3] (centres unmarked) [Ga-HTK03187]
- Ki [1]: 10.6 ± 2 nM

SMILES: O=C([O-])CN1CCN(CC(=O)[O-])CCN(CC(=O)NCC2CCC(C(=O)NC(Cc3c4ccccc4cc4ccccc34)C(=O)NCCCCC(NC(=O)NC(CSCC(=O)O)C(=O)O)C(=O)O)CC2)CCN(CC(=O)[O-])CC1.[68Ga+3] (centres unmarked) [[^68Ga]Ga-HTK03177]
- Adrenal glands uptake [2]: 0.46 ± 0.17 %ID/g
- Blood uptake [2]: 0.70 ± 0.06 %ID/g
- Blood:Salivary gland uptake ratio [2]: 3.14 ± 0.19
- Bone uptake [2]: 0.10 ± 0.03 %ID/g
- Brain uptake [2]: 0.02 ± 0.00 %ID/g
- Fat uptake [2]: 0.09 ± 0.04 %ID/g
- Heart uptake [2]: 0.21 ± 0.01 %ID/g
- Intestines uptake [2]: 0.21 ± 0.02 %ID/g
- Kidneys uptake [2]: 7.76±1.00 %ID/g and < 8.0 %ID/g
- Lacrimal glands uptake [2]: 0.12 ± 0.06 %ID/g
- Liver uptake [2]: 0.33 ± 0.20 %ID/g
- Lungs uptake [2]: 0.61 ± 0.08 %ID/g
- Muscle uptake [2]: 0.10 ± 0.01 %ID/g
- Pancreas uptake [2]: 0.14 ± 0.01 %ID/g
- Salivary glands uptake [2]: 0.22±0.02 %ID/g and < 0.25 %ID/g
- Spleen uptake [2]: 0.42 ± 0.15 %ID/g
- Stomach uptake [2]: 0.15 ± 0.09 %ID/g
- Testes uptake [2]: 0.25 ± 0.07 %ID/g
- Thyroid uptake [2]: 0.23 ± 0.01 %ID/g
- Tumor uptake [2]: 24.7±6.85 %ID/g and 21-25 %ID/g
- Tumor:Blood uptake ratio [2]: 36.1±12.5
- Tumor:Kidney uptake ratio [2]: 3.25±1.16
- Tumor:Muscle uptake ratio [2]: 265±103
- Tumor:Salivary gland uptake ratio [2]: 112±33.1
- Adrenal glands uptake [2, 4]: 0.61 ± 0.38 %ID/g
- Blood uptake [2, 4]: 0.85 ± 0.15 %ID/g
- Blood:Salivary gland uptake ratio [2, 4]: 6.07 ± 2.53
- Bone uptake [2, 4]: 0.24 ± 0.17 %ID/g
- Brain uptake [2, 4]: 0.02 ± 0.00 %ID/g
- Fat uptake [2, 4]: 0.20 ± 0.16 %ID/g
- Heart uptake [2, 4]: 0.23 ± 0.04 %ID/g
- Intestines uptake [2, 4]: 0.69 ± 0.76 %ID/g
- Kidneys uptake [2, 4]: 1.73 ± 0.36 %ID/g
- Lacrimal glands uptake [2, 4]: 0.15 ± 0.10 %ID/g
- Liver uptake [2, 4]: 0.37 ± 0.22 %ID/g
- Lungs uptake [2, 4]: 0.54 ± 0.06 %ID/g
- Muscle uptake [2, 4]: 0.13 ± 0.05 %ID/g
- Pancreas uptake [2, 4]: 0.54 ± 0.54 %ID/g
- Salivary glands uptake [2, 4]: 0.15 ± 0.04 %ID/g
- Spleen uptake [2, 4]: 0.25 ± 0.18 %ID/g
- Stomach uptake [2, 4]: 0.12 ± 0.05 %ID/g
- Testes uptake [2, 4]: 0.36 ± 0.14 %ID/g
- Thyroid uptake [2, 4]: 0.21 ± 0.06 %ID/g
- Tumor uptake [2, 4]: 0.74 ± 0.12 %ID/g
- Tumor:Blood uptake ratio [2, 4]: 0.89 ± 0.19
- Tumor:Kidney uptake ratio [2, 4]: 0.43 ± 0.05
- Tumor:Muscle uptake ratio [2, 4]: 5.50 ± 2.68
- Tumor:Salivary gland uptake ratio [2, 4]: 5.05 ± 0.77
- Reduction of average kidney uptake by co-injection of DCFPyL [2]: 78%
- Kidney uptake in PET images [3]: moderate

SMILES: O=C([O-])CN1CCN(CC(=O)[O-])CCN(CC(=O)NCC2CCC(C(=O)NC(Cc3c4ccccc4cc4ccccc34)C(=O)NCCCCC(NC(=O)NC(COCC(=O)O)C(=O)O)C(=O)O)CC2)CCN(CC(=O)[O-])CC1.[68Ga+3] (centres unmarked) [[^68Ga]Ga-HTK03187]
- Adrenal glands uptake [2]: 0.26 ± 0.06 %ID/g
- Blood uptake [2]: 0.67 ± 0.10 %ID/g
- Blood:Salivary gland uptake ratio [2]: 4.27 ± 0.74
- Bone uptake [2]: 0.13 ± 0.03 %ID/g
- Brain uptake [2]: 0.02 ± 0.00 %ID/g
- Fat uptake [2]: 0.07 ± 0.02 %ID/g
- Heart uptake [2]: 0.19 ± 0.04 %ID/g
- Intestines uptake [2]: 0.23 ± 0.05 %ID/g
- Lacrimal glands uptake [2]: 0.09 ± 0.03 %ID/g
- Liver uptake [2]: 0.21 ± 0.05 %ID/g
- Lungs uptake [2]: 0.52 ± 0.09 %ID/g
- Muscle uptake [2]: 0.09 ± 0.01 %ID/g
- Pancreas uptake [2]: 0.12 ± 0.02 %ID/g
- Salivary glands uptake [2]: 0.16±0.02 %ID/g and < 0.25 %ID/g
- Spleen uptake [2]: 0.17 ± 0.02 %ID/g
- Stomach uptake [2]: 0.08 ± 0.05 %ID/g
- Testes uptake [2]: 0.15 ± 0.03 %ID/g
- Thyroid uptake [2]: 0.18 ± 0.02 %ID/g
- Tumor uptake [2]: 21.1±3.62 %ID/g and 21-25 %ID/g
- Tumor:Blood uptake ratio [2]: 32.2±8.53
- Tumor:Kidney uptake ratio [2]: 7.67±2.10
- Tumor:Muscle uptake ratio [2]: 249±61.2
- Tumor:Salivary gland uptake ratio [2]: 133±14.0
- Adrenal glands uptake [2, 4]: 0.13 ± 0.06 %ID/g
- Blood uptake [2, 4]: 0.33 ± 0.16 %ID/g
- Blood:Salivary gland uptake ratio [2, 4]: 3.64 ± 0.44
- Bone uptake [2, 4]: 0.06 ± 0.02 %ID/g
- Brain uptake [2, 4]: 0.01 ± 0.00 %ID/g
- Fat uptake [2, 4]: 0.06 ± 0.04 %ID/g
- Heart uptake [2, 4]: 0.10 ± 0.05 %ID/g
- Intestines uptake [2, 4]: 0.13 ± 0.03 %ID/g
- Kidneys uptake [2, 4]: 1.15 ± 0.37 %ID/g
- Lacrimal glands uptake [2, 4]: 0.06 ± 0.03 %ID/g
- Liver uptake [2, 4]: 0.16 ± 0.05 %ID/g
- Lungs uptake [2, 4]: 0.31 ± 0.10 %ID/g
- Muscle uptake [2, 4]: 0.08 ± 0.06 %ID/g
- Pancreas uptake [2, 4]: 0.07 ± 0.02 %ID/g
- Salivary glands uptake [2, 4]: 0.09 ± 0.04 %ID/g
- Spleen uptake [2, 4]: 0.12 ± 0.03 %ID/g
- Stomach uptake [2, 4]: 0.03 ± 0.01 %ID/g
- Testes uptake [2, 4]: 0.15 ± 0.01 %ID/g
- Thyroid uptake [2, 4]: 0.12 ± 0.05 %ID/g
- Tumor uptake [2, 4]: 0.35 ± 0.09 %ID/g
- Tumor:Blood uptake ratio [2, 4]: 1.14 ± 0.25
- Tumor:Kidney uptake ratio [2, 4]: 0.31 ± 0.08
- Tumor:Muscle uptake ratio [2, 4]: 5.34 ± 2.25
- Tumor:Salivary gland uptake ratio [2, 4]: 4.13 ± 0.92
- Tumor uptake ([2]; listed as [^68Ga]HTK03187): ~ 20 %ID/g
- Reduction of average kidney uptake by co-injection of DCFPyL [2]: 59%
- Kidney uptake in PET images [3]: relatively lower
